According to US20120065173A1 (priority 2006, published 2012):

Molecular target: T1, recombinant human GR (Homo sapiens, UniProt P04150)
T1 construct: purchased Panvera/Invitrogen P2812 (kit P2893)
T1 sequence (P04150 1-777): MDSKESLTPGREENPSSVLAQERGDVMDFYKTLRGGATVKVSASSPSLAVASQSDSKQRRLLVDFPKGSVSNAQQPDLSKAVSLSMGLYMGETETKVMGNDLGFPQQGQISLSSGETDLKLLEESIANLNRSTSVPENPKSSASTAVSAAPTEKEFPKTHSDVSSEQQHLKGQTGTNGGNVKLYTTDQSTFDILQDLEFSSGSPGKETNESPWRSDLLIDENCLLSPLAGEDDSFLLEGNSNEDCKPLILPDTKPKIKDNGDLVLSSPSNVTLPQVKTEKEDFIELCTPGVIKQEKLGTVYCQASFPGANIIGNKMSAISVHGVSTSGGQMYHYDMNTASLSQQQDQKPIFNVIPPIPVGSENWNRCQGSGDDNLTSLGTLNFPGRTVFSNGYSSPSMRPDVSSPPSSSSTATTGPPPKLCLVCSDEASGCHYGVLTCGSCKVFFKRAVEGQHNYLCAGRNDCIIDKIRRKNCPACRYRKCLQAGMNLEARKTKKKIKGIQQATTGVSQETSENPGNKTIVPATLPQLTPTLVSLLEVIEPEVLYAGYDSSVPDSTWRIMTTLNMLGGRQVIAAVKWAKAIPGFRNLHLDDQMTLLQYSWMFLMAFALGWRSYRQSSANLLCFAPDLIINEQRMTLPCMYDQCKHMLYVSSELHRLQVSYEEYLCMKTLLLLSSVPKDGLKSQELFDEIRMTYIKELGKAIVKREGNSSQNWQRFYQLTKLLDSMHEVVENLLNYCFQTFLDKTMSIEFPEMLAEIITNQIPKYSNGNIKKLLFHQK
Assay: Human Glucocorticoid Receptor (GR) Assay, fluorescence polarization (GRhuFL_FP_v2)
Type: binding
Conditions: GS Red tracer, 2 hours at room temperature, 100% control 10 μM Dexamethasone
Experimental: Human Glucocorticoid Receptor (GR) Assay
The assay is based on a commercial kit from Panvera/Invitrogen (Part number P2893). The assay technology is fluorescence polarization. […] The GR and Stabilizing Peptide reagents are stored at −70° C. while the GS Red is stored at −20° C. Also included in the kit are 1M DTT (Panvera, Part number P2325, stored at −20° C.) and GR Screening buffer 10× (Panvera, Part number P2814, stored at −70° C. initially but once thawed stored at room temperature). Avoid repeated freeze/thaws for all reagents. The GR Screening buffer 10× comprises 100 mM potassium phosphate, 200 mM sodium molybdate, 1 mM EDTA and 20% DMSO.
0% control was 100% DMSO and 100% control was 10 μM Dexamethasone. Background solution (8 μL; assay buffer 10×, Stabilizing Peptide, DTT and ice cold MQ water) was added to the background wells. GS Red solution (7 μL; assay buffer 10×, Stabilizing Peptide, DTT, GS Red and ice cold water) was added to all wells except background wells. GR solution (7 μL; assay buffer 10×, Stabilizing Peptide, DTT, GR and ice cold water) was added to all wells. The plate was sealed and incubated in a dark at room temperature for 2 hours.

| IC50 [nM] | Compound |
| --- | --- |
| 3.6 | C[C@H](NS(=O)(=O)C1CC1)[C@H](Oc1ccc2c(cnn2-c2ccc(F)cc2)c1)c1cnc2ccccc2c1 [Example 42, N-((1R,2S)-1-(1-(4-fluorophenyl)-1H-indazol-5-yloxy)-1-(quinolin-3-yl)propan-2-yl)cyclopropanesulfonamide] |
| 2.3 | C[C@H](NS(=O)(=O)C1CC1)[C@H](Oc1ccc2c(cnn2-c2ccc(F)cc2)c1)c1ccc2c(c1)OCCO2 [Example 43, N-((1R,2S)-1-(2,3-dihydrobenzo[b][1,4]dioxin-6-yl)-1-(1-(4-fluorophenyl)-1H-indazol-5-yloxy)propan-2-yl)cyclopropanesulfonamide] |
